{"source": "patent US9284252B2", "about": "“Use of jasmonate ester derivatives for treating benign hyperproliferative skin disorders” (SEPAL PHARMA LTD., priority 2009, dated 2016)", "key": {"[1]": {"system": "reconstituted three-dimensional human epidermis model (EPISKIN-Standard Model)", "experiment": "Skin irritation assay, reconstituted human epidermis model EPISKIN-SM", "settings": "15 minutes application, 42 hours post-incubation", "description": "(§1) In order to test the toxicity of jasmonate ester derivatives in human skin, skin irritation assay using a reconstituted three-dimensional human epidermis model (EPISKIN-Standard Model™; conducted at BSL-Bioservices, Planegg, Germany) was performed.\n(§2) Irritant potential of the compound was assessed from the relative mean tissue viabilities obtained compared to the corresponding negative control tissues concurrently treated with Aqua Dest (distilled water). The release of Interleukin-1α (IL-1α) into the tissue culture medium was determined to confirm the obtained results."}, "[2]": {"system": "reconstituted three-dimensional human epidermis model (EpiDerm skin model)", "experiment": "Skin corrosion assay, EpiDerm skin model", "format": "cell-based", "method": "In particular, MJ was applied topically to the EpiDerm™ tissue and incubated for 3 and 60 minutes at each time. After the incubation period, tissue viability was assessed via MTT reduction assay."}, "[3]": {"system": "actinic keratosis (AK) cell line HT297.T", "experiment": "XTT proliferation assay in actinic keratosis cell line", "format": "cell-based", "settings": "72 h, 3 days treatment, HT297.T cells", "method": "IC50 values were calculated from the mean of triplicate wells for each experiment. […]"}, "[4]": {"system": "UVB-damaged skin in SKH-1 mice", "experiment": "Skin lesion formation induced by UVB, damaged skin mouse model of actinic keratosis", "format": "in vivo", "from_the_text": "The efficacy of Compound C was further evaluated in an animal model of Actinic Keratosis (AK). The purpose of the study was to determine the effect of compound C against lesion formation in UVB-damaged skin in SKH-1 mice, a mouse model of AK and non-melanoma skin cancers.\nThe study was divided to two parts: pre-study that included UVB irradiation to induce the damage to the skin, and efficacy study that included the treatment with Compound C compared to standard treatment and efficacy evaluation. After 16 weeks of UVB irradiation, 60% of the animals developed lesions, and treatment was started on week 17 and continued for 7.5 weeks. The total duration of the study was 23.5 weeks.\nThe study included female mice, 6-8 weeks of age at study initiation. After 16 weeks of UVB irradiation, when 60% (36/60) of the animals developed at least 1 lesion, mice were randomly stratified into 12 mice per group (see Table 4) according to score and number of lesions. Picato gel (Ingenol mebutate, Leo Pharma Inc.) was used as the positive control.\nFor UVB irradiation, Vilber-Lourmat (France) Lamp VL-6.M was used, irradiating at 312 nm with an intensity of 0.89 mW/cm^2 at a distance of 15 cm. Determination of UVB irradiation Minimal Erythemal Dose (MED) was performed prior to the beginning of the study (during the pre-study period). Animals were UVB irradiated during different time periods (starting at 30 sec) and the presence of erythema was recorded 24 and 48 hours later.\nObservations for clinical scoring and signs of erythema and edema, were performed twice a week. Erythema and edema scoring were performed according to the grading levels described in Table 5 below. Lesion numbers were determined once a week during Weeks 4-6 and twice a week during Weeks 7-16 until treatment started. During treatment, lesion number and erythema-edema scores were performed twice a week."}, "[5]": {"format": "in vitro ADME", "settings": "human", "description": "These studies were conducted by BSL-Bioservices (Planegg, Germany) and the samples were analyzed by ATC (Liege, Belgium)."}, "[6]": {"system": "reconstituted three-dimensional human epidermis model (EPISKIN-Standard Model)", "description": "as §1, §2"}, "lymphomas in mice": {"system": "lymphomas in mice", "settings": "cited from earlier work"}, "[7]": {"system": "cervical cancer cell lines", "settings": "range of cervical cancer cell lines; cited from earlier work"}, "[8]": {"system": "metastatic melanoma cells", "settings": "cited from earlier work"}, "[9]": {"system": "malignant keratinocytes A431 cell line", "settings": "cited from earlier work"}}, "data": [{"smiles": "CCCCCCCCCCCCOS(=O)(=O)[O-].[Na+]", "note": "[5% SDS solution]", "values": [{"measurement": "Mean relative tissue viability (%) (MTT reduction)", "setting": "[1]", "value": "3.3 ± 0.6", "unit": "%"}, {"measurement": "IL-1α release", "setting": "[1]; tissue culture medium", "value": "236.7 ± 23.0", "unit": "pg/mL"}]}, {"smiles": "[K+].[OH-]", "note": "[8N KOH]", "values": [{"measurement": "Mean relative tissue viability (%) (MTT reduction) after 3 minutes", "setting": "[2]; 3 minutes treatment", "value": "26 ± 5.3", "unit": "%"}, {"measurement": "Mean relative tissue viability (%) (MTT reduction) after 60 minutes", "setting": "[2]; 60 minutes treatment", "value": "14 ± 3.7", "unit": "%"}]}, {"smiles": "CC/C=C\\CC1C(=O)CCC1CC(=O)Oc1cccc2cccnc12", "note": "(stereo not shown) [Compound C]", "values": [{"measurement": "IC50", "setting": "[3]", "value": 0.25, "unit": "µM"}, {"measurement": "maximal reduction in lesion number on Day 50", "setting": "[4]; Compound C 2.5% topical, group 3F", "value": 65, "unit": "%"}, {"measurement": "maximal reduction in lesion number on Day 50", "setting": "[4]; Compound C 40% topical, group 5F", "value": 72, "unit": "%"}, {"measurement": "maximal reduction in lesion number on Day 50", "setting": "[4]; group 4F (5% topical per Table 4)", "value": 70, "unit": "%"}, {"measurement": "histopathology evaluation of skin", "setting": "[4]; groups treated with compound C", "value": "look similar to naïve (healthy) animals"}, {"measurement": "gross pathology examination", "setting": "[4]; mouse, in vivo", "value": "No abnormality was detected"}, {"measurement": "skin erythema or edema following topical treatment", "setting": "[4]; mouse, in vivo", "value": "no skin erythema or edema"}, {"measurement": "reduction in total area of lesions and total tumor area", "setting": "[4]; topical, concentration not given", "value": 70, "unit": "%"}]}, {"smiles": "CC/C=C\\CC1C(=O)CCC1CC(=O)OC", "note": "(stereo not shown) [MJ, methyl jasmonate]", "values": [{"measurement": "local intra-skin concentrations", "setting": "[5]", "value": "~1", "unit": "M"}, {"measurement": "corrosion classification according to OECD Guideline and EC Commission Regulation", "setting": "[2]", "value": "non-corrosive"}, {"measurement": "IC50", "setting": "[3]", "value": 21.1, "unit": "µM"}, {"measurement": "irritation classification according to ECVAM SIVS recommendations", "setting": "[6]", "value": "non-irritant"}, {"measurement": "prevention of development of lymphomas", "setting": "lymphomas in mice", "value": "effective"}, {"measurement": "cytotoxicity", "setting": "[7]", "value": "cytotoxic"}, {"measurement": "cell motility", "setting": "[8]", "value": "suppresses cell motility"}, {"measurement": "development of lung metastases", "setting": "[8]", "value": "inhibits the development of lung metastases"}, {"measurement": "toxicity on A431 cell line", "setting": "[9]", "value": "low toxicity"}]}, {"smiles": "CC/C=C\\C[C@H]1C(=O)CC[C@@H]1CC(=O)O", "note": "[jasmonic acid]", "values": [{"measurement": "toxicity on A431 cell line", "setting": "[9]", "value": "low toxicity"}]}]}
